Structures can show the parent of a compound that is named as a salt.
Assays:
Format in all cases: in vivo
male Swiss albino mice [1] = experiment: Writhing test in mice (phenylbenzoquinone-induced writhing reactions); conditions: for inhibition at 40 mg/kg / inhibition at 80 mg/kg / inhibition at 160 mg/kg / ED50: Mus musculus; for inhibition at 40 mg/kg / inhibition at 80 mg/kg / inhibition at 160 mg/kg / Writhing test % Activity: 60 minutes prior to phenylbenzoquinone i.p., inhibition of writhing reactions vs control; for ED50: po; for ED50 / Writhing test ED50: mice; for Writhing test ED50: p.o., in mg/kg
Description: Ia. Writhing Test in Mice
(§1) The Writhing test for the determination of the analgesic activity of the inventive active substance combination is carried out according to the method described in the publication of E. Siegmund et al., Proc. Soc. Exp. Biol. Med. 1957, 95, 729-731 using male Swiss albino mice (20-25 g body weight, obtained from Harlan, S. Feliu de Codinas, Spain). The respective part of the description is hereby incorporated by reference and forms part of the respective disclosure.
The Writhing reactions are induced by intraperitoneal injection of phenylbenzoquinone (25 ml/kg in a 0.02% (volume/volume) ethanolic solution in a 5% (volume/volume) solution in destillated water with Evan's blue in an amount of 0.1% weight/volume) and the writhing reactions are counted during a 15 minute period following the injection. The substances to be tested are orally administered 60 minutes prior to the injection of the phenylbenzoquinone solution. The percentage of the inhibition of the writhing reactions is calculated on the basis of the control group as basis for 0% inhibition.

male Wistar albino rats = experiment: Determination of ulcerogenic effect in rats; conditions: stomach three hours after administration
Description: II. Determination of Ulcerogenic Effect in Rats The ulcerogenic effect of the inventive active substance combination is determined in male Wistar albino rats (body weight 160-200 g, obtained from Harlan, S. Feliu de Codinas, Spain) according to the method described in the publication of J. L. Wallace et al., […]. 1990, 259, […]-[…]. The respective part of the description is incorporated by reference and forms part of the present disclosure. Prior to the tests the rats are kept in cages for 24 hours with free access to drinking water. Afterwards the substances to be tested are orally administered to the rats in form of a 5% by weight suspension in arabic gum. Three hours after the administration of the respective substances to be tested the rats are sacrificed by inhalation of carbon dioxide, the stomachs are removed, opened along the great curvature, washed with saline solution and extended over a suitable frame. By the use of a Projectt 1.2 image analyzer (Projectt, Barcelona, Spain) the ulcerated areas of the stomachs are determined and their size expressed in mm^2.

male Swiss albino mice [2] = experiment: Formaline test in mice; conditions: for inhibition at 40 mg/kg: Mus musculus, ip
Description: Ib. Formaline Test in Mice
as §1, with “Formaline” for “Writhing”, “T. Ohkubo” for “E. Siegmund”, “J. Pharmacol.” for “Proc. Soc.”, “Ther. 1990, 252, 1261-1268” for “Biol. Med. 1957, 95, 729-731”
The substances to be tested are intraperitoneally administered to the mice in 5% by weight solution of arabic gum in destined water as vehicle. 15 minutes later 20 μl of a 5% by weight solution of formaline in saline solution is injected into the back of the right paw of the animals. The total time in seconds of licking and/or biting the injected paw is registered in the acute phase, i.e. 0-5 minutes (phase I), and in the chronic phase, i.e. 15-30 (phase II), minutes after injection of the formaline. The percentage of inhibition is calculated based on the medium values of the acute and chronic phases of the control group as 0% inhibition of the primary and secondary response.

[3] = 40 mg/kg i.p., acute phase 0-5 minutes after formaline, inhibition of licking/biting time, read-out: Formaline test % Activity Phase I
[4] = read-out: Formaline test % Activity Phase II

Row | SMILES | inhibition at 40 mg/kg (male Swiss albino mice [1]; 40 mg/kg p.o.) | inhibition at 80 mg/kg (male Swiss albino mice [1]; 80 mg/kg p.o.) | inhibition at 160 mg/kg (male Swiss albino mice [1]; 160 mg/kg p.o.) | ED50 (male Swiss albino mice [1]) | Ulcerated area (male Wistar albino rats; 80 mg/kg p.o.) | Writhing test % Activity (male Swiss albino mice [1]; 40 mg/kg p.o.) | Writhing test % Activity (male Swiss albino mice [1]; 80 mg/kg p.o.) | Writhing test % Activity (male Swiss albino mice [1]; 160 mg/kg p.o.) | Writhing test ED50 (male Swiss albino mice [1]) | Ulcerated area (male Wistar albino rats; 160 mg/kg p.o.) | further results
1 | O=C(O)Cc1ccccc1Nc1c(Cl)cccc1Cl [Diclofenac-sodium, diclofenac in form of its sodium salt, reference compound] | 19.8% | 54.9% | 84.1% | 75.1 mg/kg | 13.7 mm^2 |  |  |  |  |  | Ulcerated area (male Wistar albino rats; 40 mg/kg p.o.): 3.81 mm^2
2 | CC(C)Cc1ccc(C(C)C(=O)O)cc1 (stereo not shown) [Ibuprofen, reference compound] | 19.8% | 47.6% | 62.9% | 103 mg/kg |  |  |  |  |  |  | 
3 | CC(C)Cc1ccc(C(C)C(=O)O)cc1.[Na] (stereo not shown) [Ibuprofen-sodium, ibuprofen-sodium, reference compound] |  |  |  |  | 5.29 mm^2 |  |  |  |  |  | 
4 | COc1ccc2cc([C@H](C)C(=O)O)ccc2c1 [Naproxen, reference compound] | 32% | 51.2% | 78.5% | 71.2 mg/kg | 10.5 mm^2 |  |  |  |  |  | inhibition at 40 mg/kg (male Swiss albino mice [2]; [3]): 31.5%; inhibition at 40 mg/kg (male Swiss albino mice [2]; [4]): 18%
5 | CN(C)CCO[C@H](c1ccccc1)c1ccnn1C.O=C(O)Cc1ccccc1Nc1c(Cl)cccc1Cl [R-(+)-Cizolirtine diclofenacate, R-(+)-5-[α-[2-(Dimethylamino)ethoxy]benzyl]-1-methyl-1H-pyrazole diclofenacate] |  |  |  |  | 2.75 mm^2 | 14.7% | 57.3% | 72.1% | 84 | 7.24 mm^2 | 
6 | CC(C)Cc1ccc([C@H](C)C(=O)O)cc1.CN(C)CCO[C@H](c1ccccc1)c1ccnn1C [R-(+)-Cizolirtine ibuprofenate, R-(+)-5-[α-[2-(Dimethylamino)ethoxy]benzyl]-1-methyl-1H-pyrazole S-(+)-ibuprofenate] |  |  |  |  |  | 15.9% | 45% | 80.9% | 84.8 | 3.21 mm^2 | 
7 | CN(C)CCO[C@H](c1ccccc1)c1ccnn1C.COc1ccc2cc([C@H](C)C(=O)O)ccc2c1 [R-(+)-Cizolirtine naproxenate, R-(+)-5-[α-[2-(Dimethylamino)ethoxy]benzyl]-1-methyl-1H-pyrazole naproxenate] |  |  |  |  |  | 32.0% | 52.0% | 77.3% | 71.29 | 6.86 mm^2 | Formaline test % Activity Phase I (male Swiss albino mice [2]; 40 mg/kg i.p., acute phase 0-5 minutes after formaline, inhibition of licking/biting time): 49%; Formaline test % Activity Phase II (male Swiss albino mice [2]; 40 mg/kg i.p., chronic phase 15-30 minutes after formaline, inhibition of licking/biting time): 36%
8 | CN(C)CCO[C@H](c1ccccc1)c1ccnn1C [R-(+)-Cizolirtine, R-(+)5-[α-[2-(Dimethylamino)ethoxy]benzyl]-1-methyl-1H-pyrazole] | 29% | 49.7% | 72.5% | 79 mg/kg |  | 28.9% |  |  | 79 |  | inhibition at 40 mg/kg (male Swiss albino mice [2]; [3]): 83%; inhibition at 40 mg/kg (male Swiss albino mice [2]; [4]): 68.5%
9 | CN(C)CCO[C@@H](c1ccccc1)c1ccnn1C.COc1ccc2cc([C@H](C)C(=O)O)ccc2c1 [S-(−)-Cizolirtine naproxenate, S-(−)-5-[α-[2-(Dimethylamino)ethoxy]benzyl]-1-methyl-1H-pyrazole naproxenate] |  |  |  |  |  | 26.7% | 52.4% | 68.5% | 82.15 |  | 
10 | CN(C)CCO[C@@H](c1ccccc1)c1ccnn1C [S-(−)-Cizolirtine, S-(−)-5-[α-[2-(Dimethylamino)ethoxy]benzyl]-1-methyl-1H-pyrazole] |  |  |  |  |  | 29.0% | 49.7% | 59.7% | 95.26 |  | 

Reference: US20050222136A1, “Active substance combination” (priority 2004, published 2005)
